Source: patent US20060241067A1, “Methods For inhibiting angiogenesis, cell migration, cell adhesion, and cell survival” (priority 2002, published 2006)
Read-outs that look alike come from different tables or passages of the source. Where a SMILES comes first, the peptide text is derived from it. Where no end group is shown, it is not given here. The star is where a group is joined. Cbz = O=C(OCc1ccccc1)*; CH2F = FC*

Assays:
[1] = system: Human umbilical vein endothelial cells (HUVEC); experiment: Endothelial cell migration assay (transwell) on ECM substrates; assay type: cell-based; conditions: for endothelial cell migration on vitronectin: 1 μM peptide
Experimental: Human umbilical vein endothelial cells (HUVEC) were grown in Endothelial Growth Medium (containing 2% fetal bovine serum, bFGF and VEGF) (Clonetics, San Diego, Calif.). To render HUVECs quiescent for Rac and/or Rho assays, monolayers of endothelial cells were incubated for 18 hrs in Endothelial Basal Medium supplemented with 0.1% serum (Clonetics). Cell migration and adhesion assays on ECM substrates were performed as previously described in Kim et al. (S. Kim et al., Amer. J. Biol. Chem., 275:33920-33928 (2000); and S. Kim et al., Amer. J. Path., 156:1345-1362 (2000)).
Migration assays were performed essentially as described (Kim, et. al., 2000). […] HUVECS (25,000) were added to the upper chamber of inserts in migration buffer (Hepes buffered M199 medium containing 1% BSA, 2 mM MgCl2, 2 mM CaCl2 and 0.2 mM MnCl2) containing 25 μg/ml of various antibodies. In some experiments, 250 μM dibutyryl cAMP was placed in the upper and lower chambers of the transwell. Cells were allowed to migrate from the upper to the lower chamber for four hours at 37° C. The number of cells which had migrated were counted in three representative high power (200×) fields per insert. The data are presented as number of cells migrating+/−standard error of the mean. Migration assays were similarly performed on transfected cells. In this case, migrated transfected cells were identified by fluorescent microscopy and counted.

[2] = system: chick chorioallantoic membrane (CAM); experiment: Chick chorioallantoic membrane (CAM) angiogenesis assay; assay type: in vivo, chicken; conditions: for effect on inhibition of angiogenesis by anti-αvβ3: 500 μM caspase inhibitors; for effect on inhibition of angiogenesis by anti-α5β1: 500 μM caspase inhibitors or 4 μg plasmid; for angiogenesis (blood vessel branch points, vessel density): 1 μM peptide
HUVECS [3] = experiment: Annexin V-FITC staining of HUVECs (apoptosis); assay type: cell-based, human
Experimental: Plates were also coated with […] goat anti-mouse IgG (Southern Biotechnology Associates, Inc., Birmingham, Ala.) at 37° C. for 2 h, rinsed, blocked with denatured BSA, and then incubated with […] anti-a5b1 or control IgG (anti-MHC) at 4° C. for 16 hrs. HUVECs were incubated on plates in the presence or absence of 10 mg/ml anti-α5β1, -αvβ3, -α2β1, or -MHC for 0-24 hrs. In some experiments, HUVECs were incubated with antibodies and […] caspase-3, -8 or -9 inhibitors or vehicle control (0.5% DMSO). Cells were then incubated with Annexin V-FITC for 15 min at room temperature in the dark. Washed cells were fixed in 1% paraformaldehyde, then incubated in DAPI. The percentage of Annexin positive cells in 5 microscopic fields was determined at 200× magnification by fluorescence microscopy.
(§1) HUVECs were plated for 24 h on ECM protein-coated plates in the presence of anti-αvβ3 or anti-α5β1, 1 μM HA1004 (a PKA inhibitor), and anti-αvβ3 or anti-α5β1 with 1 μM HA1004. Cells were stained with FITC-Annexin V or immunoblotted with anti-cleaved caspase 3 antibodies as described above. 5×10^6 HUVECs were electroporated in 300 μl of EGM with 30 μg of DNA (20 μg dnPKA or PKAcat plasmids, 2 μg N1-GFP and 8 μg pBluescript) at 300 V, 450 μF as previously described (Dormond et al. (2001) Nature Med. 7,1041-7). Expression of transgenes was determined by Western blotting of cell lysates with anti-V5 and anti-GFP antibodies. Transfection efficiency was quantified by determining the percent of cells that were co-transfected with GFP-expression vectors. Eighty-percent transfection efficiency was generally achieved using this electroporation method.

HUVECS [4] = experiment: Apoptosis assays in HUVECs (PARP and caspase immunoblots, caspase activity, DNA fragmentation); assay type: cell-based, human
Experimental: In some embodiments, HUVECs were incubated on ECM or antibody coated plates for 0-24 hrs. DNA fragmentation was detected by agarose gel electrophoresis as described in M. Herrmann et al. (See, M. Herrmann et al., Nucleic Acids Res., 22:5506-5507 (1994)). Alternatively, HUVECS on plates were lyzed with RIPA buffer (See, S. Kim et al., J. Biol. Chem., 275:33920-33928 (2000)) on ice. Lysates were electrophoresed on 8% SDS-PAGE gels and immunoblotted with anti-PARP, -caspase-3, -caspase-9, -cleaved caspase 3, or -cleaved caspase-9 antibodies. Immunoreactive bands were identified by chemiluminescence and quantified by densitometry. Caspase 3 and 8 activities were determined in cell lysates according to manufacturer's instructions (Calbiochem, La Jolla, Calif.).
as §1

[5] = system: chick chorioallantoic membrane (CAM); experiment: Apoptosis markers in CAM blood vessels in vivo (Annexin V, cleaved caspases, TUNEL, DNA gels); design: species or system chicken; conditions: for caspase activity in vivo (cleaved caspase immunoblot): CAMs treated with anti-α5β1 and caspase inhibitor; for effect on endothelial cell DNA fragmentation induced by α5β1 inhibition in vivo: TUNEL staining of CAM cryosections
Experimental: CAM assays were performed as described (Kim et al. (2000) Am. J. Path. 156:1345-1362). Saline or bFGF stimulated CAMs were treated for 24 h with 20 μg anti-α5β1, anti-αvβ3 or control antibodies and then injected intravenously with 50 μl Annexin V-FITC. CAMs were harvested after 2 h, then analyzed by confocal microscopy. Alternatively, CAMs treated as above were excised, minced on ice, and treated with 0.1% dispase/0.1% collagenase for 1 h at 37° C. Single cell suspensions were incubated with FITC-Annexin V and analyzed as described above. bFGF stimulated CAMs were also treated with anti-α5β1 or anti-αvβ3 in the presence or absence of 500 μM caspase-3, -8 or -9 inhibitors. bFGF stimulated CAMs were also transfected with 4 μg N1-GFP, dnPKA or PKAcat expression plasmids. Freshly excised CAMs were homogenized in ice cold RIPA buffer containing protease inhibitors and immunoblotted to detect intact and cleaved caspase 3 or 8. For all treatment groups, n=10. CAMs were fixed with 3.7% paraformaldehyde prior to excision. The average number of blood vessel branch points per treatment group+/−SEM is presented. Some excised CAMs were cryopreserved, cut into 5 μm sections, immunostained with anti-cleaved caspase 3, anti-cleaved caspase 8 and anti-VFW antibodies (to detect blood vessels). CAMs were also stained by the TUNEL method to detect fragmented DNA.

[6] = system: DU145 prostate carcinoma tumors; experiment: DU145 tumor assay in nude mice; assay type: in vivo; conditions: daily intravenous injections, ten days
protein kinase A = experiment: PKA activity assay in HUVECs; assay type: cell-based, human
Experimental: PKA activity was measured in HUVECs essentially as previously described in Kim et al (S. Kim et al., Amer. J. Biol. Chem., 275:33920-33928 (02000)). HUVECs were placed in suspension, allowed to attach to ECM protein coated plates in the absence or presence of anti-integrin antibodies or were treated with 10 μM PTHrP and/or 250 μM cAMP. PKA activity was measured at various times from 0-4 hrs (e.g., 2-30 min).
Plates were washed and blocked in 3% bovine serum albumin for 1 hour at 37° C. HUVECS were trypsinized and resuspended in adhesion buffer (Hanks balanced salt solution supplemented with 10 mM HEPES, pH 7.4, 2 mM MgCl2, 2 mM CaCl2, 0.2 mM MnCl2, 1% BSA. Cells were plated on matrix protein coated plates in culture medium or in the presence of 25 μg/ml anti-α5β1, anti-αvβ3 or anti-α2β1 antibodies for various times from 0 minutes to 4 hours. Plates were washed with phosphate buffered saline and cells were extracted with cold extraction buffer (50 mM Tris, pH 7.5, 5 mM EDTA, 25 μg/ml aprotinin and 25 μg/ml leupeptin). Protein Kinase A activity was assessed using a kit from Gibco BRL. Briefly, equal volumes of lysate and reaction mixture containing final concentrations of 50 mM Tris, pH 7.5, 10 mM MgCl2, 0.25 mg/ml BSA, 50 μM Kemptide (a protein kinase A substrate), 3000 Ci/mmol (γ^32 P) ATP and 100 μM ATP were combined for 5 minutes at 30° C. Total PKA in each sample was measured by performing the assay in the presence of 10 μM cAMP. Background PKA activity in test and total PKA samples were determined by performing the assay in the presence of a PKA inhibitor peptide, PKI (6-22) amide. Twenty μl samples of reaction mixtures were spotted onto phosphocellulose discs and washed repeatedly with 1% (v/v) phosphoric acid in water. Incorporated radioactivity was determined by scintillation counting. Activated PKA was calculated from the ratio of pmol/min test sample PKA to pmol/min total PKA. PKA activity in triplicate samples was measured and experiments were repeated at least three times.
In another embodiment, PKA assays were performed with a kit from Calbiochem (San Diego, Calif.). Cell lysates were incubated in ELISA plates coated with a PKA peptide substrate, then incubated with anti-phosphoserine antibodies. Bound antibody was detected after incubation with anti-rabbit IgG-horse radish peroxidase. Statistical analyses were performed using Student's t-test.

## O=S(=O)(NCCNCC=Cc1ccc(Br)cc1)c1cccc2cnccc12 [H89, N-(2-(p-bromocinnamylamino)ethyl)-5-isoquinoline sulfonamide]
[1]; HUVEC on vitronectin
  effect on cAMP-, PKA catalytic subunit- or PTHrP-mediated inhibition of cell migration: blocked the anti-migratory properties of PTHrP
[2]; bFGF stimulated CAMs, 8B12, 480 nM H89 or dnPKA plasmid
  effect on inhibition of angiogenesis by PTHrP: blocks the suppression of angiogenesis induced by PTHrP 1-34

## NC(N)=NCCNS(=O)(=O)c1cccc2cnccc12 [HA1004]
HUVECS [3]; PKA inhibition (1 μM HA1004 or dnPKA), 24 h
  effect on apoptosis induced by integrin antagonists: substantially suppressed the apoptosis
HUVECS [4]; cells attached to vitronectin
  effect on caspase 3 cleavage induced by anti-α5β1: blocked caspase 3 cleavage

## COC(=O)CC[C@H](NC(=O)[C@H](CC(=O)OC)NC(=O)OCc1ccccc1)C(=O)N[C@H](C(=O)N[C@@H](CC(=O)OC)C(=O)CF)C(C)C [caspase 3 inhibitors, z-DEVD-fmk]
HUVECS [3]; 50 μM caspase inhibitor, cells on fibronectin or vitronectin, 24 h
  effect on cell death induced by anti-α5β1 antibodies: blocked
[2]; bFGF stimulated CAMs
  effect on inhibition of angiogenesis by anti-αvβ3: partially reversed
  effect on inhibition of angiogenesis by anti-α5β1: partially reversed
[5]
  caspase activity in vivo (cleaved caspase immunoblot): partially blocked caspase 3 activity in vivo
  effect on endothelial cell DNA fragmentation induced by α5β1 inhibition in vivo: prevented in vivo endothelial cell DNA fragmentation

## CC[C@H](C)[C@H](NC(=O)OCc1ccccc1)C(=O)N[C@@H](CCC(=O)OC)C(=O)N[C@H](C(=O)N[C@@H](CC(=O)OC)C(=O)CF)[C@@H](C)O [caspase 8 inhibitors, z-IETD-fmk] (Cbz-IE(OMe)TD(OMe)-CH2F)
[2]; bFGF stimulated CAMs
  effect on inhibition of angiogenesis by anti-αvβ3: partially reversed
  effect on inhibition of angiogenesis by anti-α5β1: fully reversed
[5]
  caspase activity in vivo (cleaved caspase immunoblot): completely blocked its activity in vivo
  effect on endothelial cell DNA fragmentation induced by α5β1 inhibition in vivo: prevented in vivo endothelial cell DNA fragmentation

## H L Q A H S V E D L (HLQAHSVEDL) [scrambled 1-10, scrambled version of PTHrP 1-10, control peptide]
[1]
  endothelial cell migration on vitronectin: unable to inhibit cell migration
[6]; final serum concentration 1 μM
  tumor growth: but not a scrambled control peptide, suppressed tumor growth and tumor angiogenesis
[6]
  tumor angiogenesis (CD31 vessels): but not a scrambled control peptide, suppressed tumor growth and tumor angiogenesis

## PTHrP 1-86: PTHrP fragment containing the N-terminus, amino acids 1-86
[1]
  endothelial cell migration on vitronectin: inhibited migration
[2]; bFGF stimulated CAMs
  angiogenesis (blood vessel branch points, vessel density): potently inhibited angiogenesis

## PTHrP 15-34: PTHrP fragment, amino acids 15-34 (IQDLRRRFFLHHLIAEIHTA)
[1]
  endothelial cell migration on vitronectin: unable to inhibit cell migration

## PTHrP 107-138: PTHrP fragment lacking the N-terminus (TRSAWLDSGVTGSGLEGDHLSDTSTTSLELDS; UniProt P12272 143-174, looked up, fragment)
[1]
  endothelial cell migration on vitronectin: not able to inhibit cell migration

## calcitonin: a calcium regulating peptide hormone (CGNLSTCMLGTYTQDFNKFHTFPQTAIGVGAP; ends and bridges not checked; cysteine pairing not given here; UniProt P01258 85-116, looked up)
[2]; bFGF stimulated CAMs
  angiogenesis (blood vessel branch points, vessel density): Only PTHrP inhibited angiogenesis
[2]; saline-stimulated CAMs
  pre-existing vessels (number, size, composition): no effect on the number, size or composition of pre-existing vessels

## cholera toxin
Protein kinase A
  PKA activation: activates PKA

## fibronectin: ECM protein used as culture substrate
HUVECS [3]; coated plates, 0-8 h
  annexin V binding of HUVECs by culture substrate: bind little annexin V
HUVECS [4]; HUVECs on coated plates
  DNA fragmentation by culture substrate: protects HUVECs from DNA fragmentation
  PARP cleavage by culture substrate: showed little PARP cleavage

## pertussis toxin
Protein kinase A; inventors' data, no details given
  PKA activation: inhibits PKA activation
